Source: patent publication US20260315372A1, “INJECTABLE PHARMACEUTICAL FORMULATIONS” (priority 2023, published 2026)
Like-named read-outs stand apart in the source and are kept apart here.

Assays:
[1] = cited from earlier work
sigma-1 receptor = conditions: cited from earlier work
[2] = test system: serotonin transporter (SERT); conditions: cited from earlier work
in vivo [3] = conditions: dog, sc, 0.5 mg/kg; for Vd/F: Vz/F (mean)
5-HT2A receptor = conditions: cited from earlier work
[4] = test system: 5-hydroxytryptamine-(5-HT)1A; conditions: cited from earlier work
5-HT2A = conditions: cited from earlier work
[5] = test system: trace amine-associated receptors (TAARs); conditions: cited from earlier work
[6] = dog, in vivo, sc
5-HT2C = conditions: cited from earlier work
[7] = in vivo; cited from earlier work
in vivo [8] = assay: in vivo; parameters: species or system male Beagle dogs; conditions: dog
From the text: A: Proof of Concept—Pharmacokinetics (PK) of DMT-d10 in Male Beagle Dogs Following Subcutaneous Administration in Saline or Sodium Hyaluronate
The objective of this study was to determine if a 1% (w/v) sodium hyaluronate formulation could modify the SC release of DMT-d10 compared to 0.9% (w/v) saline formulation.
Animals. Three, non-naïve, male Beagle dogs aged ca 2-5 years and weighing 10-15 kg at dosing were supplied by Charles River for use on this study and were bred for use in scientific procedures. The animal work in this study was conducted under the UK Home Office Project License No. PPL PP9376768, Pharmacokinetics of Pharmaceuticals. This was a cross-over design study to reduce the number of dogs in use and as well as decrease interindividual variability.
Housing. Animals were uniquely identified by microchip and tattoo in this study. During pre-trial and on-study periods, the animals were group housed in caging appropriate to the species. The animals were housed singly for up to 4 h per day and during this time had access to their daily ration of diet.
IPS 5007 diet was provided as a daily ration throughout the study. A 350 g ration of feed per dog was provided once daily, except during designated procedures. On the morning of dosing (pre-dose), the animals were deprived from their daily food allowance until 2 h post dose. Mains quality tap water was available ad libitum. Details of diet and water are maintained at the test facility.
(§1) Prior to acceptance for use on study, animals were subject to an examination and the results found to be satisfactory. All animals were weighed prior to each dose administration and the bodyweights recorded. Animals were checked regularly throughout the duration of the study. Any clinical signs were closely monitored and recorded.
Test Items. DMT-d10 fumarate was formulated as a solution in 0.9% (w/v) saline, pH 5.5-6 (control) or in 1% (w/v, nominal) sodium hyaluronate in water for injection (WFI) (Formulation 28) at a free base concentration of 0.4 mg/mL (nominal) for SC injection. Each test item was prepared on the morning of dose administration and stored at ambient temperature, protected from light, until dosing.
Control (0.9% w/v saline): On the day prior to dosing, DMT-d10 fumarate was removed from storage (frozen, in a freezer set to maintain ≤−20° C., protected from light) and allowed to equilibrate to room temperature. Using a precision analytical balance, 9.7 mg of DMT-d10 fumarate was weighed into a 20 mL headspace vial which was pre-calibrated to a final volume of 15 mL with a magnetic stir bar inside. The weighed API was returned to storage. On the morning of dosing, the weighed API was removed from storage and allowed to equilibrate to room temperature. 13.55 mL of vehicle (0.9% w/v saline) was added to the vial (equivalent to 90% of final volume) and set to magnetically stir for ca 35 minutes. Using a calibrated pH meter, the solution pH was measured. […] The solution was made to final volume of 15 mL, using the pre-calibrated line, with 0.9% w/v saline. The final pH was recorded as 5.53. The solution was then filtered using a […] PVDF syringe filter in the laminar air flow cabinet (LAFC). The visual appearance of the solution was recorded as a clear, colorless, homogenous solution. […] The control solution was protected from light at all times.
Formulation 28: On the morning of dosing, DMT-d10 fumarate was removed from storage (frozen, in a freezer set to maintain ≤−20° C., protected from light) and allowed to equilibrate to room temperature. Using a precision analytical balance, 11.02 mg of DMT-d10 fumarate was weighed into a 20 mL headspace vial containing a magnetic stir bar. 3.5 mL of WFI was added to the vial and set to stir, making a stock solution with a free base concentration of 2 mg/mL (nominal) DMT-d10. Once homogenous, 2 mL of the stock solution was dispensed into a vial containing 8 mL of 1.25% (w/v, nominal) sodium hyaluronate and vortex mixed until homogenous. […]

[9] = parameters: species or system male Beagle dogs; conditions: dog, in vivo, sc, 1 mg/kg
Method: D: Dose Concentration and Dose Volume—Pharmacokinetics of DMT-d10 in Male Beagle Dogs Following Subcutaneous Administration at 1 mg/kg Formulated in Hyaluronic Acid Concentrations at Higher Dosing Solution Concentrations and Lower Dosing Volume
The objective of this study was to determine the effect of increasing the dosing solution concentration of DMT-d10 and decreasing the dose volume on the SC release of DMT-d10 into the systemic circulation. This study was conducted using the same CRO, housing, and materials as described above in part A. All conditions described in part A pertain to this study with the exceptions noted below.
Test Items. […]
[…]. Once homogeneous, the density was measured to be 1.000 g/cm^3. […] The visual appearance was recorded as a clear/yellowish homogenous solution at this stage. The pH was measured using a calibrated pH meter and recorded to be 3.24. […] The density was measured to be 1.012 g/cm^3. […]
[…]. The density of the resultant 0.8% (w/v, nominal) sodium hyaluronate solution was recorded to be 1.002 g/cm^3. […] The final visual appearance of the formulation was recorded as a clear, colorless, homogenous solution.
(§2) Subcutaneous injections. […] Appropriate volumes of dose were calculated per each animal based on real animal bodyweights and a target dose volume of 0.05 mL/kg or 0.25 mL/kg. […]

[10] = parameters: species or system male Beagle dogs; conditions: dog, in vivo, sc
Method: as §1
Subcutaneous injections. The target dose was 0.1 mg/kg, free base at a dose concentration of 0.4 mg/mL. Appropriate volumes of dose were calculated per each animal based on real animal bodyweights and a target dose volume of 0.25 mL/kg. The volumes were pulled into plastic Troge 2.5 mL syringes. Animals were identified by microchip and tattoo. […]
Subcutaneous injections. […] Appropriate volumes of dose were calculated per each animal based on real animal bodyweights and a target dose volume of 0.25 mL/kg. […]
as §2
Subcutaneous injections. DMT+DMT-d10 were co-dosed (via Formulation 35) at 0.5 mg/kg/analyte, total dose of 1.0 mg/kg (free base), each at a dose concentration of 10 mg/mL (nominal), total dose concentration of 20 mg/mL (nominal) and a dose volume of 0.05 mL/kg calculated per each animal based on real animal bodyweights. […]

SMILES: COc1ccc2[nH]cc(CCN(C)C)c2c1 [Formulation 5-MeO-DMT, 5-methoxy-N,N-dimethyltryptamine]
- oral bioavailability ([1]; oral): lacks oral bioavailability

SMILES: CN(C)CCc1c[nH]c2ccccc12 [DMT, 2-(1H-indol-3-yl)-N,N-dimethylethan-1-amine]
- binding to sigma-1 receptor (sigma-1 receptor): binds to other receptors
- binding to SERT [2]: binds with affinity
- AUC(0-inf) (in vivo [3]): 48.7 ng·h/mL
- CL/F (in vivo [3]): 173 mL/min/kg
- Cmax (in vivo [3]): 58.1 ng/mL
- MRT inf (in vivo [3]): 52 min
- Tmax (in vivo [3]): 30 min
- half-life (in vivo [3]): 32 min
- Vd/F (in vivo [3]): 7.59 L/kg
- agonism at the 5-HT2A receptor (5-HT2A receptor): potent agonist
- binding to 5-HT1A [4]: binds with affinity
- binding to 5-HT2A (5-HT2A): binds with affinity
- binding to TAARs [5]: binds to other receptors
- plasma concentrations quantifiable to [6]: ≤ 2 h
- binding to 5-HT2C (5-HT2C): binds with affinity
- oral activity ([1]; in vivo, po): not orally active
- therapeutically relevant psychedelic dose [7]: ≥ 70 mg

SMILES: [2H]C([2H])([2H])N(C([2H])([2H])[2H])C([2H])([2H])C([2H])([2H])c1c[nH]c2ccccc12 [DMT-d10, 2-(1H-indol-3-yl)-N,N-bis(methyl-d3)ethan-1-amine-1,1,2,2-d4]
- AUC(0-inf) (in vivo [3]): 109 ng·h/mL
- CL/F (in vivo [3]): 77.5 mL/min/kg
- Cmax (in vivo [3]): 75.6 ng/mL
- MRT inf (in vivo [3]): 73.8 min
- Tmax (in vivo [3]): 30 min
- half-life (in vivo [3]): 43.3 min
- Vd/F (in vivo [3]): 4.73 L/kg
- dose proportionality of Cmax and AUCinf (in vivo [8]): increased in a dose proportional manner
- plasma DMT-d10 concentrations quantifiable up to (in vivo [8]): up to 4 hours
- MRT inf (in vivo [8]; sc): ~90 min
- Tmax (in vivo [8]; sc): 30 to 45 min
- half-life (in vivo [8]; sc): ~54 min
- plasma DMT-d10 concentrations quantifiable up to (in vivo [8]; sc): up to 4 hours
- plasma DMT-d10 concentrations quantifiable up to [9]: up to 4 hours
- decrease of apparent clearance (Cl/F) by deuteration [6]: 2.2 ×
- decrease of apparent volume of distribution (Vz/F) by deuteration [6]: 1.6 ×
- increase of AUCinf by deuteration [6]: 2.2 ×
- increase of Cmax by deuteration [6]: 1.3 ×
- increase of MRTinf by deuteration [6]: 1.4 ×
- increase of t1/2 by deuteration [6]: 1.4 ×
- plasma concentrations quantifiable to [6]: ≤ 4 h
- Vz/F (mean) ([6]; 0.5 mg/kg): 4.72 L/kg
- adverse reactions to the administration [10]: No adverse reactions
- clinical signs post-dose [10]: Mild, transient clinical signs
